Structures are written as SMILES.

The target in data set [1] is T1, DAAO (Mus musculus, UniProt P18894).
T1 construct: CD1 mice (6-8 wk old, Sprague Dawley, Harlan) were dosed orally with D-serine (30 mg/kg)±compounds; from tissue; host or cells: living CD1 mice (whole animal; DAAO of liver, kidney, brain)
Briefly: Plasma D-serine after oral administration of D-serine ± DAAO inhibitors, determined by SPE/DAAO. Conditions: CD1 mice; for plasma D-serine curve / exposure to D-serine on co-administration: D-serine 326 μmole/kg po plus inhibitor po (CBIO 180, TPC 160 μmoles/kg). Type of data set: in vivo. As to the method:
Plasma was collected at 0.5, 1, 2, 3, and 6 hours after dosage. D-serine was extracted from plasma by SPE and its levels determined by the DAAO reaction. FIG. 2(A) depicts D-serine alone, FIG. 2(B) depicts CBIO alone, D-serine±CBIO and FIG. 2(C) depicts D-serine±TPC. […] Each data point is the average of data from 3 separate mice; error bars correspond to ±S.E.M. D-serine standard curves were constructed for each experiment.
Animals—CD1 mice (6-8 wk old, Sprague Dawley, Harlan) were dosed orally with D-serine (30 mg/kg)±compounds. Animals were sacrificed 0.5, 1, 2, 3 and 6 h after dosing and blood was collected by cardiac puncture bleeds. Plasma was prepared and frozen at −80° C. until use.
(§1) Cation Exchange SPE—D-serine was added to normal mouse plasma at different concentrations to generate a standard curve. Plasma (50 μL) containing D-serine or plasma from D-serine treated animals was diluted in 200 μL 0.03 N HCl (pH 1.5). […] Acidified samples were then added to a cation exchange resin (BioRad AG 50W-X4, 200 μL resin equilibrated with 0.03 N HCl) in deep well spin plates (Harvard Apparatus). Minicolumns were centrifuged for 2 min at 200×g. The resin was washed twice with 250 μL 0.03 N HCl and 3 times with 250 μL 100 mM Tris, pH 8.5. D-serine was eluted with 2 times 250 μL 100 mM Tris, pH 13.
D-serine Measurement—An aliquot (50 μL) of the D-serine eluant from the cation exchange SPE was used as the source of D-serine in the DAAO catalyzed reaction. […] Briefly, the reaction is carried out in Tris buffer (pH 8.5, 100 mM) in the presence of flavin adenine dinucleotide (10 μM). The peroxide formed from the oxidation of D-serine in the presence of porcine DAAO (34 units/mg, Sigma) was made to react with horse radish peroxidase (0.01 mg/ml, Sigma) in the presence of Amplex Red (50 μM, Invitrogen) to make resorufin. Fluorescence of resorufin (ex/em 530/590) was monitored in a SpectraMax Gemini XS fluorimeter for 1 h at 5 min intervals. D-serine concentrations were determined by interpolation from the standard curve of fluorescence vs. D-serine concentration. […]

In data set [2] the target is T2, DAAO (Rattus norvegicus, UniProt O35078).
T2 construct: host or cells: living rats (whole animal)
T2 sequence (O35078 whole entry): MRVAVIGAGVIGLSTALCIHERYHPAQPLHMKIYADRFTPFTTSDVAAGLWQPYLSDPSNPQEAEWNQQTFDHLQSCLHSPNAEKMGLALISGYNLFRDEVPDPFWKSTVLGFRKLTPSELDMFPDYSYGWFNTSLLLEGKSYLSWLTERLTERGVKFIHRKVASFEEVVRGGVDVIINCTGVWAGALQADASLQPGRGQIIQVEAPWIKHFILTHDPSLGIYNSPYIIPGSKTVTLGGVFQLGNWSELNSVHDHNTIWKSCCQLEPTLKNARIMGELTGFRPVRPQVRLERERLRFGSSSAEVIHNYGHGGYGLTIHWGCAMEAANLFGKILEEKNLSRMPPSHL
Conditions: oral co-administration with D-serine, rats; cited from earlier work.

Data set [3] has as its system prepulse inhibition deficits. To be noted: co-administration with D-serine, ddy mice; similar to 10-fold higher doses of D-serine alone; cited from earlier work.
Another data set has as its target T3, porcine DAAO (Sus scrofa, UniProt P00371).
T3 construct: purchased Sigma
Briefly: DAAO enzyme coupled assay (Amplex Red/HRP, resorufin fluorescence). In kind it is biochemical. To be noted: control experiment, CBIO not removed by SPE; data not shown. As to the method:
D-serine Measurement—An aliquot (50 μL) of the D-serine eluant from the cation exchange SPE was used as the source of D-serine in the DAAO catalyzed reaction. The DAAO assay is an enzyme coupled assay that was adapted from a procedure that has been reported previously (P. E. Brandish, et al. J Biomol Screen 11 (2006) 481-87). Briefly, the reaction is carried out in Tris buffer (pH 8.5, 100 mM) in the presence of flavin adenine dinucleotide (10 μM). The peroxide formed from the oxidation of D-serine in the presence of porcine DAAO (34 units/mg, Sigma) was made to react with horse radish peroxidase (0.01 mg/ml, Sigma) in the presence of Amplex Red (50 μM, Invitrogen) to make resorufin. Fluorescence of resorufin (ex/em 530/590) was monitored in a SpectraMax Gemini XS fluorimeter for 1 h at 5 min intervals. D-serine concentrations were determined by interpolation from the standard curve of fluorescence vs. D-serine concentration.
The eluant containing D-serine was then used as substrate in the DAAO catalyzed reaction. […] The levels of several D-amino acids in mouse serum have been reported previously and they range from not detectable to 6 μM (A. Hashimoto, et al. Neurosci Lett 152 (1993) 33-36); these concentrations would give a low fluorescence background. […] In any case, background fluorescence was determined from control animals every time an experiment was carried out. […]

Data set [4] is described as follows: Plasma D-serine time profile after oral D-serine, determined by SPE/DAAO. In kind it is in vivo, CD1 mice. Conditions: D-serine 326 μmoles/kg po. As for the experimental part:
[…] Animals were sacrificed 0.5, 1, 2, 3 and 6 h after dosing and blood was collected by cardiac puncture bleeds. Plasma was prepared and frozen at −80° C. until use.
as §1
D-serine Measurement—An aliquot (50 μL) of the D-serine eluant from the cation exchange SPE was used as the source of D-serine in the DAAO catalyzed reaction. The DAAO assay is an enzyme coupled assay that was adapted from a procedure that has been reported previously (P. E. Brandish, et al. J Biomol Screen 11 (2006) 481-87). […] Fluorescence of resorufin (ex/em 530/590) was monitored in a SpectraMax Gemini XS fluorimeter for 1 h at 5 min intervals. D-serine concentrations were determined by interpolation from the standard curve of fluorescence vs. D-serine concentration. […]

For data set [5] the following is noted: cited from earlier work.
The subject of data set [6] is N-methyl-D-aspartate (NMDA) receptor. To be noted: multiple clinical studies; high doses (2 g per day po); cited from earlier work.

T1 sequence (P18894 whole entry): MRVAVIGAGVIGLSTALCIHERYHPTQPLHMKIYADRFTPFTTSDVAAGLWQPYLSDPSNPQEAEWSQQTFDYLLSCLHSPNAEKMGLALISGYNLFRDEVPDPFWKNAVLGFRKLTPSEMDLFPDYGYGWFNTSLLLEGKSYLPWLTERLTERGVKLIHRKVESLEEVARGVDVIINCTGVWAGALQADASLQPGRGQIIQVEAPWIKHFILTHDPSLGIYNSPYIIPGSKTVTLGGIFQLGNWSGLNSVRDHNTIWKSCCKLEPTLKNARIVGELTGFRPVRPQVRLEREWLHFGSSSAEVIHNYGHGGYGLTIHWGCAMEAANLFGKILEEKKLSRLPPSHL
T3 sequence (P00371 whole entry): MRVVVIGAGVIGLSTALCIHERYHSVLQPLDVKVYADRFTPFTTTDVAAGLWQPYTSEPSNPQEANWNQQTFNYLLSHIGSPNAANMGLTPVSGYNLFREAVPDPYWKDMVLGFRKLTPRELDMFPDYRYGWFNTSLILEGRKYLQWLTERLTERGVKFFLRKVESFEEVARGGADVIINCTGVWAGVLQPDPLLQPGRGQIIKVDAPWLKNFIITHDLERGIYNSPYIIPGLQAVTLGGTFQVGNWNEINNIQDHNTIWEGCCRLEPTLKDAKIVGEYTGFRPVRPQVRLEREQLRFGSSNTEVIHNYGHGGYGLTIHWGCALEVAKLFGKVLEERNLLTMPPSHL

In the case of `Oc1noc2ccc(Cl)cc12` [CBIO, 5-chloro-benzo[d]isoxazol-3-ol], the “plasma D-serine levels when inhibitor administered in the absence of D-serine” value at DAAO [1] (CBIO alone) is given as “the same as background levels”. Moreover, the “plasma D-serine curve / exposure to D-serine on co-administration” value at DAAO [1] is “overall curve was shifted to the right”. Moreover, on DAAO [2], the “brain levels of D-serine compared to D-serine alone” value is listed as “significantly enhanced” and the “plasma levels of D-serine compared to D-serine alone” value was “significantly enhanced”. Moreover, the prepulse inhibition deficits result in data set [3] is reported as “normalized”. Further, the “oxidation of D-serine by DAAO” value at porcine DAAO is listed as “completely inhibited”.
`N[C@H](CO)C(=O)O` [D-serine]: the “time point showing the highest D-serine plasma concentration” value in data set [4] (first time point, Tmax likely earlier) is given as 0.5 h. In data set [4] (mouse, CD1 mice, plasma, read-out: estimated half-life of D-serine in mouse plasma), the half-life is ~50 min. Besides, the “pKa of the carboxylic acid” value in data set [5] was 2.1. Further, in data set [6], the “treating the positive, negative and cognitive deficits of schizophrenia” value is recorded as “effective”.
On to `O=C(O)c1cc2sccc2[nH]1` [TPC, 4H-thieno[3,2-b]pyrrole-5-carboxylic acid], for which the “plasma D-serine curve / exposure to D-serine on co-administration” value on DAAO [1] is “shifted the exposure of D-serine in plasma”.

Broadly, the half-life is the time needed for the level to fall by half in the phase considered.

The record behind these values is patent US8778688B2, “High-throughput methods for determining pharmacological levels of plasma D-serine” (The Johns Hopkins University, priority 2011, dated 2014).
